The values that follow come from US20250326748A1, “COMPOUNDS AND METHODS FOR MODULATING SPLICING” (REMIX THERAPEUTICS INC., priority 2022, published 2025).

The term IC50 denotes the concentration that gives 50% inhibition. By AC50 is commonly meant the concentration at which the activity in the assay is half-maximal.

Structures are written as SMILES. Where a name gives a salt, the structure may show the parent alone. Read-outs that look alike come from different tables or passages of the source.

For one data set, the system named is HiBiT-tagged HTT protein. In words: HiBiT protein abundance assay, HTT (K562 HiBiT knock-in). The following applies: HiBiT knock-in cells, 24 hours. Type of data set: cell-based, human. On the procedure: Compounds described herein were used to screen for effects on quantitative protein abundance using a HiBit assay system (Promega). Quantitative protein abundance was determined by measuring the protein levels of HiBit-tagged protein targets expressed in cell culture via luminescence using the Nano-Glo HiBiT Lytic Detection System, which uses a split complementation assay format to reconstitute NanoBiT enzyme to generate a luminescent signal. A protein abundance assay was developed such that endogenous protein targets could be modified with the HiBiT peptide tag and their abundance could be assessed after compound treatment. Briefly, K562 cell lines containing a HiBiT-modification were treated with various compounds described herein (e.g., compounds of Formulas (I), or (II)). After treatment for 24 hours, the protein abundance of a specific target was determined by measuring luminescence.
• Promega Nano-Glo HiBiT Lytic Detection System (cat #N3030) • Corning 384-well TC-treated microplates (cat #3570)
(§1) Cells were maintained in IMDM with 10% FBS. Before the assay, cells were diluted with […] growth media (IMDM+1% FBS media) and were seeded in a 384-well plate at a density of 10000 cells/well (for each cell line listed in Table 6). Each compound was prepared as a 10-point 3-old serial dilution in DMSO with the top dose at a final concentration of 10 μM in the well. Unmodified K562 cells were added at the previously specified density with DMSO to serve as an assay baseline and positive control (PC) and DMSO only with the respective modified cell lines was added to the negative control (NC) columns. Final DMSO concentration was kept at or below 0.25%. Treated cell plates were placed in an incubator at 37° C. with 5% CO2 for 24 hours. After 24 hours, 25 μL of Complete HiBit Lytic reagent was added to each well at room temperature (e.g. one plate requiring 10 ml Lytic Buffer, 100 μL LgBiT Protein, 200 μL Lytic Substrate), shaken for 5 minutes at 600 RPM, then left to sit for 10 minutes for signal to stabilize before reading on a Spark Cyto plate reader (Tecan) with a 500 ms measurement time.
(§2) To determine compound effects on protein abundance of each target in Table 6, the percent response for each respective cell line was calculated at each compound concentration as follows:
(§3) For the normalized response at each concentration, a four-parameter logistical regression was fit to the data and the response was interpolated at the 50% value to determine a concentration for protein abundance at 50% (IC50) the untreated control.

The subject of the next data set is Target C. In words: HiBiT protein abundance assay, Target C (K562 HiBiT knock-in). Type of data set: cell-based, human. The note with it: HiBiT knock-in cells, 24 hours. The procedure: as §1, §2, §3
For orientation: HiBiT is a short tag that completes a luciferase, so light tracks the accessible tagged protein.

Another data set concerns K562 cells. In words: Cell viability, Cell Titer Glo 2.0 assay, K562. The following applies: 72 hours. On the technique in general: ATP-based viability assays read luminescence as a measure of living cells.
For another data set, the system named is HTT mRNA. In words: Splicing RT-qPCR assay, HTT canonical (CJ) and alternative (AJ) junction mRNA. Type of data set: cell-based, human. The following applies: Homo sapiens; for IC50: canonical junction mRNA; for AC50: alternative junction mRNA, read-out: HTT AJ (AC50, increase in AJ mRNA). In short, it runs like this:
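Cmpd 24 h, 37 °C/5% CO2; 11-pt 3x serial dilution from 10 uM final; DMSO max 0.25%. Cells: A673 (DMEM/10% FBS, pre-adhered 24 h) or K562 (IMDM/10% FBS). Lyse, DNase I, then 1-step RT-qPCR for CJ and AJ; housekeeping-normalized.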
A general note: In qPCR the cycle at which signal appears reflects the starting amount.

Setting [1] is: 24 h, RT-qPCR, A673 or K562 cells, 24 hours treatment, read-out: HTT CJ (IC50, decrease in CJ mRNA).
Where [2] appears, read: qPCR panel, read-out: HTT CJ (decrease in CJ mRNA levels, IC50).
[3] abbreviates: RT-qPCR, A673 or K562 cells, 24 hours treatment.

For `CN[C@@H]1CN(c2cnc3nc(-c4cc5cn(C)nc5c(C)c4O)ccc3c2)C[C@H]1F` (single isomer, unassigned) [Compound 130], the concentration for half-maximal inhibition (IC50) in the data set with HiBiT-tagged HTT protein, with Target C, in the data set with HTT mRNA (setting [1]) and in the data set with HTT mRNA (setting [2]) was 100 to 1000 nM throughout. For the same compound, in the data set on K562 cells, the “Effect on Cell Viability, K562” value is listed as “B (100-1000 nM)”. Also, in the data set on HTT mRNA (setting [3]), the AC50 is 100 to 1000 nM.

Turning to `CN[C@H]1CN(c2cnc3nc(-c4cc5cn(C)nc5c(C)c4O)ccc3c2)C[C@@H]1F` (single isomer, unassigned) [Compound 131], the IC50 in the data set with HiBiT-tagged HTT protein, with Target C, with HTT mRNA (setting [1]) and in the data set on HTT mRNA (setting [2]) was 1000 to 10000 nM each time. The “Effect on Cell Viability, K562” value in the data set on K562 cells was “C (1000-9999 nM)”. Also, in the data set with HTT mRNA (setting [3]), the concentration at half-maximal activity (AC50) was 1000 to 10000 nM.

With `Cc1c(O)c(-c2ccc3cc(N4CCC(NCC5CC5)C4)cnc3n2)cc2cn(C)nc12` (stereo in doubt) [Compound 119, 5-{6-[(3R)-3-[(cyclopropylmethyl)amino]pyrrolidin-1-yl]-1,8-naphthyridin-2-yl}-2,7-dimethylindazol-6-ol], the IC50 with HiBiT-tagged HTT protein was < 100 nM; with Target C, 100 to 1000 nM; with HTT mRNA (setting [1]), < 100 nM; with HTT mRNA (setting [2]), < 100 nM. For the same compound, the “Effect on Cell Viability, K562” value with K562 cells is “A (<100 nM)”. Besides, the concentration at half-maximal activity (AC50) in the data set on HTT mRNA (setting [3]) lay in the range of 100 to 1000 nM.

Regarding `CNC1CCN(c2cnc3nc(-c4cc5cn(C)nc5c(C)c4O)ncc3c2)C1` (stereo not drawn) [Compound 104, 2,7-dimethyl-5-{6-[3-(methylamino)pyrrolidin-1-yl]pyrido[2,3-d]pyrimidin-2-yl}indazol-6-ol], the half-inhibitory concentration (IC50) in the data set with HiBiT-tagged HTT protein, in the data set with Target C, in the data set on HTT mRNA (setting [1]) and in the data set with HTT mRNA (setting [2]) was 100 to 1000 nM throughout. The “Effect on Cell Viability, K562” value in the data set on K562 cells is “A (<100 nM)”. Besides, the AC50 in the data set with HTT mRNA (setting [3]) is 100 to 1000 nM.

`Cc1c(O)c(-c2ccc3cc(N4CCC(NCC5CC5)C4)cnc3n2)cc2cn(C)nc12` (stereo not drawn) [Compound 105, 5-(6-{3-[(cyclopropylmethyl)amino]pyrrolidin-1-yl}-1,8-naphthyridin-2-yl)-2,7-dimethylindazol-6-ol]: the IC50 in the data set with HiBiT-tagged HTT protein was < 100 nM; with Target C, < 100 nM; in the data set on HTT mRNA (setting [1]), 100 to 1000 nM; in the data set on HTT mRNA (setting [2]) it was 100 to 1000 nM. For the same compound, the “Effect on Cell Viability, K562” value with K562 cells is reported as “A (<100 nM)”. Further, the AC50 with HTT mRNA (setting [3]) lay within 100 to 1000 nM.

Turning to `CCNC1CCN(c2cnc3nc(-c4cc5cn(C)nc5c(F)c4O)ccc3c2)C1` (stereo not drawn) [Compound 106, 5-{6-[3-(ethylamino)pyrrolidin-1-yl]-1,8-naphthyridin-2-yl}-7-fluoro-2-methylindazol-6-ol], the concentration for half-maximal inhibition (IC50) was < 100 nM with HiBiT-tagged HTT protein, < 100 nM in the data set on Target C, 100 to 1000 nM in the data set on HTT mRNA (setting [1]) and 100 to 1000 nM in the data set on HTT mRNA (setting [2]). The “Effect on Cell Viability, K562” value with K562 cells is “A (<100 nM)”. The AC50 in the data set with HTT mRNA (setting [3]) is 100 to 1000 nM.

Regarding `CN[C@@H]1CCN(c2cnc3nc(-c4cc5cn(C)nc5c(C)c4O)ncc3c2)C1` [Compound 107, 2,7-dimethyl-5-{6-[(3R)-3-(methylamino)pyrrolidin-1-yl]pyrido[2,3-d]pyrimidin-2-yl}indazol-6-ol hydrochloride], the IC50 in the data set on HiBiT-tagged HTT protein, in the data set on Target C, in the data set with HTT mRNA (setting [1]) and with HTT mRNA (setting [2]) was < 100 nM in each case. The “Effect on Cell Viability, K562” value in the data set with K562 cells is recorded as “A (<100 nM)”. In addition, the AC50 in the data set on HTT mRNA (setting [3]) was < 100 nM.

On to `CN[C@@H]1CCN(c2cnc3nc(-c4cc5cn(C)nc5c(C)c4O)ccc3c2)C1` [Compound 112], for which the IC50 with HiBiT-tagged HTT protein was 100 to 1000 nM; with Target C, 100 to 1000 nM; in the data set with HTT mRNA (setting [1]), < 100 nM; in the data set on HTT mRNA (setting [2]), < 100 nM. For the same compound, in the data set with K562 cells, the “Effect on Cell Viability, K562” value is listed as “B (100-1000 nM)”. In addition, the AC50 in the data set on HTT mRNA (setting [3]) was < 100 nM.

On to `Cc1cn2nc(-c3cnc4nc(C5CCNCC5)ccc4c3)cc(C)c2n1` [Compound 115, 6-(2,8-dimethylimidazo[1,2-b]pyridazin-6-yl)-2-(piperidin-4-yl)-1,8-naphthyridine], for which the IC50 in the data set on HiBiT-tagged HTT protein, in the data set with Target C, in the data set with HTT mRNA (setting [1]) and in the data set on HTT mRNA (setting [2]) was 1000 to 10000 nM throughout. The “Effect on Cell Viability, K562” value in the data set with K562 cells was “C (1000-9999 nM)”. For the same compound, the AC50 in the data set on HTT mRNA (setting [3]) was > 10000 nM.
